Laboratory results reported in patent publication US10093664B2, “Bicyclo[1.1.1]pentane inhibitors of dual leucine zipper (DLK) kinase for the treatment of disease” (priority 2016, dated 2018).
Read-outs that look alike come from different tables or passages of the source.

Tests used:
[1] = molecular target: T1, human DLK (Homo sapiens (Human), UniProt Q12852); assay: cell-based; conditions: p-cJun (Ser63)
Protocol: HEK293 cells stably transfected with a Dox-inducible human DLK were plated into a 384-well plate in 20 μl (40,000 cells/well) of DMEM medium (without phenol red) containing 10% fetal bovine serum, 1.5 μg/ml doxycycline and 1 μg/ml puromycin. The cells as negative control were grown in the absence of doxycycline. The plate was incubated at 37° C., 5% CO2 for 20 h, before DMSO (control) or compounds diluted in medium were added. The cells were incubated at 37° C. for an additional 5 h, followed by lysis and the addition detection antibodies from p-cJun (Ser63) cellular assay kit (Cisbio) per manufacturer protocol. The standard dose response curves were fitted by Genedata Screener software using the variable-slope model: Signal=Signalnegative control+(SignalDMSO control−Signalnegative control)/(1+(IC50/Dose)^Hill slope). Only signal and dose in the equation were treated as known values.

[2] = molecular target: T1, human DLK; assay: biochemical; format: binding
Protocol: The DLK dissociation constants (Kd) have been determined in the KINOMEscan KdELECT Service at DiscoveRx.
A fusion protein of full length of human DLK (amino acids 1-859) and the DNA binding domain of NFkB was expressed in transiently transfected HEK293 cells. From these HEK 293 cells, extracts were prepared in M-PER extraction buffer (Pierce) in the presence of Protease Inhibitor Cocktail Complete (Roche) and Phosphatase Inhibitor Cocktail Set II (Merck) per manufacturers' instructions. The DLK fusion protein was labeled with a chimeric double-stranded DNA tag containing the NFkB binding site (5′-[sequence]-3′) fused to an amplicon for qPCR readout, which was added directly to the expression extract (the final concentration of DNA-tag in the binding reaction is 0.1 nM).
The liganded beads were blocked with excess biotin and washed with blocking buffer (SeaBlock (Pierce), 1% BSA, 0.05% Tween 20, 1 mM DTT) to remove unbound ligand and to reduce nonspecific binding.
Extracts were used directly in binding assays without any enzyme purification steps at a ≥10,000-fold overall stock dilution (final DNA-tagged enzyme concentration <0.1 nM). Extracts were loaded with DNA-tag and diluted into the binding reaction in a two step process. First extracts were diluted 1:100 in 1× binding buffer (PBS/0.05% Tween 20/10 mM DTT/0.1% BSA/2 μg/ml sonicated salmon sperm DNA) containing 10 nM DNA-tag. This dilution was allowed to equilibrate at room temperature for 15 minutes and then subsequently diluted 1:100 in 1× binding buffer. Test compounds were prepared as 111× stocks in 100% DMSO. Kds were determined using an 11-point 3-fold compound dilution series with three DMSO control points. […] The compounds were then diluted directly into the assays such that the final concentration of DMSO was 0.9%. All reactions performed in polypropylene 384-well plates. Each was a final volume of 0.02 mL. Assays were incubated with shaking for 1 hour at room temperature. Then the beads were pelleted and washed with wash buffer (1×PBS, 0.05% Tween 20) to remove displaced kinase and test compound. […] The kinase concentration in the eluates was measured by qPCR. qPCR reactions were assembled by adding 2.5 μL of kinase eluate to 7.5 μL of qPCR master mix containing 0.15 μM amplicon primers and 0.15 μM amplicon probe. The qPCR protocol consisted of a 10 minute hot start at 95° C., followed by 35 cycles of 95° C. for 15 seconds, 60° C. for 1 minute.
Test compounds were prepared as 11× stocks in 100% DMSO. Kds were determined using an 11-point 3-fold compound dilution series with three DMSO control points. […] The compounds were then diluted directly into the assays such that the final concentration of DMSO was 0.9%. The Kds were determined using a compound top concentration of 30,000 nM. Kd measurements were performed in duplicate.
Binding constants (Kds) were calculated with a standard dose-response curve using the Hill equation:
The Hill Slope was set to −1.

[3] = Table 2b (global), additional assay runs on multiple batches, includes Table 2a data in the averaging, HEK293, read-out: Cell IC50
[4] = Table 2b DLK activity (global), read-out: Kd

| SMILES | IC50 [1, 3] [nM] | Kd [2, 4] [nM] | IC50 ([1]; Table 2a, HEK293 cells, Dox-inducible human DLK, 5 h compound, read-out: Avg Phospho-cJun Cell IC50) [nM] | Kd ([2]; read-out: Avg DLK Kd) [nM] |
| --- | --- | --- | --- | --- |
| Nc1ncc(-c2cn(C34CC(C3)C4)c([C@H](O)C(F)(F)F)n2)cc1C(F)(F)F (single isomer, unassigned) [Example 6a] | 745 |  |  |  |
| Nc1ncc(-c2cn(C34CC(C3)C4)c([C@@H](O)C(F)(F)F)n2)cc1C(F)(F)F (single isomer, unassigned) [Example 6b] | 38.7 | 0.74 |  |  |
| Nc1ncc(-c2cn(C34CC(N5CCOCC5)(C3)C4)c([C@H](O)C(F)(F)F)n2)cc1OC(F)(F)F (single isomer, unassigned) [Example 8a] | 24.8 | 0.36 |  |  |
| Nc1ncc(-c2cn(C34CC(N5CCOCC5)(C3)C4)c([C@@H](O)C(F)(F)F)n2)cc1OC(F)(F)F (single isomer, unassigned) [Example 8b] | 284 |  |  |  |
| C#CCN1CCN(C23CC(n4cc(-c5cnc(N)c(OC(F)(F)F)c5)nc4[C@@H](O)C(C)C)(C2)C3)CC1 (single isomer, unassigned) [Example 9a] | 20.2 |  |  |  |
| C#CCN1CCN(C23CC(n4cc(-c5cnc(N)c(OC(F)(F)F)c5)nc4[C@H](O)C(C)C)(C2)C3)CC1 (single isomer, unassigned) [Example 9b] | 684 |  |  |  |
| Nc1ncc(-c2cn(C34CC(N5CCOCC5)(C3)C4)c(C(O)C(F)(F)F)n2)cc1C(F)(F)F (single isomer, unassigned) [Example 69a, 1-(4-(6-amino-5-(trifluoromethyl)pyridin-3-yl)-1-(3-morpholinobicyclo[1.1.1]pentan-1-yl)-1H-imidazol-2-yl)-2,2,2-trifluoroethan-1-ol] | 36.7 | 0.36 |  |  |
| Nc1ncc(-c2cn(C34CC(N5CCOCC5)(C3)C4)c(C(O)C(F)(F)F)n2)cc1C(F)(F)F (single isomer, unassigned) [Example 69b, 1-(4-(6-amino-5-(trifluoromethyl)pyridin-3-yl)-1-(3-morpholinobicyclo[1.1.1]pentan-1-yl)-1H-imidazol-2-yl)-2,2,2-trifluoroethan-1-ol] | 722 |  |  |  |
| Nc1ncc(-c2cn(C34CC(N5CCOCC5)(C3)C4)c(C3CC3)n2)cc1C(F)(F)F [Example 4] | 400 | 8.3 | 366 | 13 |
| CCCN1CCN(C23CC(n4cc(-c5cnc(N)c(OC(F)(F)F)c5)nc4[C@@H](O)C(C)C)(C2)C3)CC1 [Example 10, (S)-1-(4-(6-amino-5-(trifluoromethoxy)pyridin-3-yl)-1-(3-(4-(propyl)piperazin-1-yl)bicyclo[1.1.1]pentan-1-yl)-1H-imidazol-2-yl)-2-methylpropan-1-ol] | 13.9 | 0.31 |  |  |
| Nc1ncc(-c2cn(C34CC(N5CCS(=O)(=O)CC5)(C3)C4)c(C3CC3)n2)cc1OC(F)(F)F [Example 13, 4-(3-(4-(6-amino-5-(trifluoromethoxy)pyridin-3-yl)-2-cyclopropyl-1H-imidazol-1-yl)bicyclo[1.1.1]pentan-1-yl)thiomorpholine 1,1-dioxide] | 317 | 32 |  |  |
| Nc1ncc(-c2cn(C34CC(N5CCN(CC(F)(F)F)CC5)(C3)C4)c(C3CC3)n2)cc1OC(F)(F)F [Example 15, 5-(2-cyclopropyl-1-(3-(4-(2,2,2-trifluoroethyl)piperazin-1-yl)bicyclo[1.1.1]pentan-1-yl)-1H-imidazol-4-yl)-3-(trifluoromethoxy)pyridin-2-amine] | 540 | 18 |  |  |
| CS(=O)(=O)N1CCN(C23CC(n4cc(-c5cnc(N)c(OC(F)(F)F)c5)nc4C4CC4)(C2)C3)CC1 [Example 16, 5-(2-cyclopropyl-1-(3-(4-(methylsulfonyl)piperazin-1-yl)bicyclo[1.1.1]pentan-1-yl)-1H-imidazol-4-yl)-3-(trifluoromethoxy)pyridin-2-amine] | 457 | 24 |  |  |
| Nc1ncc(-c2cn(C34CC(N5CCN(CCF)CC5)(C3)C4)c(C3CC3)n2)cc1OC(F)(F)F [Example 17, 5-(2-cyclopropyl-1-(3-(4-(2-fluoroethyl)piperazin-1-yl)bicyclo[1.1.1]pentan-1-yl)-1H-imidazol-4-yl)-3-(trifluoromethoxy)pyridin-2-amine] | 281 | 6.9 |  |  |
| FC(F)(F)c1c[nH]c2ncc(-c3cn(C45CC(N6CCOCC6)(C4)C5)c(C4CC4)n3)cc12 [Example 18, 4-(3-(2-cyclopropyl-4-(3-(trifluoromethyl)-1H-pyrrolo[2,3-b]pyridin-5-yl)-1H-imidazol-1-yl)bicyclo[1.1.1]pentan-1-yl)morpholine] | 155 | 1.9 |  |  |
| Nc1ncc(-c2cn(C34CC(N5CCCCC5)(C3)C4)c(C3CC3)n2)cc1OC(F)(F)F [Example 19, 5-(2-cyclopropyl-1-(3-(piperidin-1-yl)bicyclo[1.1.1]pentan-1-yl)-1H-imidazol-4-yl)-3-(trifluoromethoxy)pyridin-2-amine] | 600 | 14 |  |  |
| c1cc2ncc(-c3cn(C45CC(N6CCOCC6)(C4)C5)c(C4CC4)n3)cc2[nH]1 [Example 20, 4-(3-(2-cyclopropyl-4-(1H-pyrrolo[3,2-b]pyridin-6-yl)-1H-imidazol-1-yl)bicyclo[1.1.1]pentan-1-yl)morpholine] | 12000 | 7500 |  |  |
| FCCn1ccc2ncc(-c3cn(C45CC(N6CCOCC6)(C4)C5)c(C4CC4)n3)cc21 [Example 21, 4-(3-(2-cyclopropyl-4-(1-(2-fluoroethyl)-H-pyrrolo[3,2-b]pyridin-6-yl)-H-imidazol-1-yl)bicyclo[1.1.1]pentan-1-yl)morpholine, bis(2,2,2-trifluoroacetate)] | 5870 | 330 |  |  |
| CN1CCN(C23CC(n4cc(-c5cnc(N)c(OC(F)(F)F)c5)nc4C4CC4)(C2)C3)CC1=O [Example 22, 4-(3-(4-(6-amino-5-(trifluoromethoxy)pyridin-3-yl)-2-cyclopropyl-1H-imidazol-1-yl)bicyclo[1.1.1]pentan-1-yl)-1-methylpiperazin-2-one] | 404 | 9.7 |  |  |
| CN1CCN(C23CC(n4cc(-c5cnc(N)c(OC(F)(F)F)c5)nc4C4CC4)(C2)C3)C(=O)C1 [Example 23, 1-(3-(4-(6-amino-5-(trifluoromethoxy)pyridin-3-yl)-2-cyclopropyl-1H-imidazol-1-yl)bicyclo[1.1.1]pentan-1-yl)-4-methylpiperazin-2-one] | 471 | 17 |  |  |
| COCCN(C)C12CC(n3cc(-c4cnc(N)c(OC(F)(F)F)c4)nc3C3CC3)(C1)C2 [Example 24, 5-(2-cyclopropyl-1-(3-((2-methoxyethyl)(methyl)amino)bicyo[1.1.1]pentan-1-yl)-1H-imidazol-4-yl)-3-(trifluoromethoxy)pyridin-2-amine] | 553 | 6.8 |  |  |
| COCCN(CCOC)C12CC(n3cc(-c4cnc(N)c(OC(F)(F)F)c4)nc3C3CC3)(C1)C2 [Example 25, 5-(1-(3-(bis(2-methoxyethyl)amino)bicyclo[1.1.1]pentan-1-yl)-2-cyclopropyl-1H-imidazol-4-yl)-3-(trifluoromethoxy)pyridin-2-amine] | 389 | 6.4 |  |  |
| Nc1ncc(-c2cn(C34CC(N5CCC(O)CC5)(C3)C4)c(C3CC3)n2)cc1OC(F)(F)F [Example 26, 1-(3-(4-(6-amino-5-(trifluoromethoxy)pyridin-3-yl)-2-cyclopropyl-1H-imidazol-1-yl)bicyclo[1.1.1]pentan-1-yl)piperidin-4-ol] | 383 | 7 |  |  |
| CC(C)c1nc(-c2cnc3ccn(C(C)c4ccccn4)c3c2)cn1C12CC(N3CCOCC3)(C1)C2 (stereo not shown) [Example 28, 4-(3-(2-isopropyl-4-(1-(1-(pyridin-2-yl)ethyl)-1H-pyrrolo[3,2-b]pyridin-6-yl)-1H-imidazol-1-yl)bicyclo[1.1.1]pentan-1-yl)morpholine] | 148 | 2.9 |  |  |
| N#CC1(c2nc(-c3cnc(N)c(OC(F)(F)F)c3)cn2C23CC(N4CCOCC4)(C2)C3)CC1 [Example 29, 1-(4-(6-amino-5-(trifluoromethoxy)pyridin-3-yl)-1-(3-morpholinobicyclo[1.1.1]pentan-1-yl)-1H-imidazol-2-yl)cyclopropane-1-carbonitrile] | 531 | 20 |  |  |
| Nc1ncc(-c2cn(C34CC(N5CCOCC5)(C3)C4)c(C3CCOC3)n2)cc1OC(F)(F)F (stereo not shown) [Example 30, 5-(1-(3-morpholinobicyclo[1.1.1]pentan-1-yl)-2-(tetrahydrofuran-3-yl)-1H-imidazol-4-yl)-3-(trifluoromethoxy)pyridin-2-amine] | 5110 | 390 |  |  |
| Nc1ncc(-c2cn(C34CC(N5CCOCC5)(C3)C4)c(C3COC3)n2)cc1OC(F)(F)F [Example 31, 5-(1-(3-morpholinobicyclo[1.1.1]pentan-1-yl)-2-(oxetan-3-yl)-1H-imidazol-4-yl)-3-(trifluoromethoxy)pyridin-2-amine] | 2570 | 170 |  |  |
| Nc1ncc(-c2cn(C34CC(N5CCOCC5)(C3)C4)c(C3CCCO3)n2)cc1OC(F)(F)F (stereo not shown) [Example 32, 5-(1-(3-morpholinobicyclo[1.1.1]pentan-1-yl)-2-(tetrahydrofuran-2-yl)-1H-imidazol-4-yl)-3-(trifluoromethoxy)pyridin-2-amine] | 518 | 6.7 |  |  |
| Nc1ncc(-c2cn(C34CC(C3)C4)c(C(O)C(F)(F)F)n2)cc1OC(F)(F)F (stereo not shown) [Example 63b, 1-(4-(6-amino-5-(trifluoromethoxy)pyridin-3-yl)-1-(bicyclo[1.1.1]pentan-1-yl)-1H-imidazol-2-yl)-2,2,2-trifluoroethan-1-ol] |  | 1.6 |  |  |
| CCCN1CCN(C23CC(n4cc(-c5cnc(N)c(OC(F)(F)F)c5)nc4C(O)C(C)C)(C2)C3)CC1 (stereo not shown) [Example 70, 1-(4-(6-amino-5-(trifluoromethoxy)pyridin-3-yl)-1-(3-(4-propylpiperazin-1-yl)bicyclo[1.1.1]pentan-1-yl)-1H-imidazol-2-yl)-2-methylpropan-1-ol] | 923 |  |  |  |
